In patent publication US11779582B2, “Composition for preventing or treating metastatic ovarian cancer, endometrial cancer or breast cancer” (LEMONEX INC., priority 2017, dated 2023):

Key:
Type in all cases: cell-based
[1] = system: AKT and STAT3 phosphorylation in sphere cultured SKOV3ip1 cells; assay: immunostaining of AKT and STAT3 phosphorylation, sphere culture
From the text: In order to identify whether a change in signaling pathways associated with cell survival appears or not according to 2D monolayer culture (2D MC) and 3D sphere culture (3D SC), immunostaining was implemented. More particularly, after culturing SKOV3ip1 cells (1×10^6) by 2D monolayer culture or 3D sphere culture described in section 1.1, expression of cell-signaling molecules including AKT, STAT3, p42/44 ERK and p38 MAPK was detected and activation states in the monolayer cultured cells and the sphere cultured cells were compared. The monolayer cultured or sphere cultured SKOV3ip1 cells were harvested and washed once with ice-cold 1× phosphate buffered saline, followed by dissolving the same in 100 μl ice-cold RIPA buffer (20 mM Tris-Cl, pH 8.0, 125 mM NaCl, […], 1 mM ethylene diamine tetraacetic acid, 1% Triton X-100, 0.5% sodium deoxycholate, 0.1% sodium dodecyl sulfate, 1× complete protease inhibitor cocktail (Roche, Mannheim, Germany)) on ice. After assessing the protein concentration using a Bradford Protein assay kit (Biorad, CA, USA), the same amount of proteins (30 μg) was separated by SDS-PAGE and moved to a nitrocellulose membrane, followed by immunostaining the same using a horseradish peroxide conjugated second antibody and a specific antibody. An immune activation band was detected with SuperSignal West Pico Chemiluminescent Substrate (Thermo, IL, USA) using a Fusion Solo chemiluminescence analyzer (Vilber Rourmat Marne la Vallee, France). Antibodies to STAT3 (H-190), STAT3 (B-7) phosphorylated at Tyr705 and actin (C-2) were purchased from Santa Cruz Biotechnology. Rabbit monoclonal antibodies on AKT, AKT (D9E) phosphorylated at Ser473, FGFR1 phosphorylated at Tyr 653/654, p42/44 MAPK, phosphorylated p42/44 MAPK, p38 MAPK and p38 MAPK phosphorylated at Tyr 180/182 were purchased from Cell Signaling Technology (MA, USA). Further, HRP-conjugated goat anti-mouse and rabbit secondary antibodies were purchased from Jackson Laboratories, while BGJ398 used in the experiment (against FGFR1/2/3) was purchased from Selleckchem (USA).
Under this ground, in order to determine whether BGJ398 can vary the state of AKT and STAT3 in the sphere cultured SKOV3ip1 cells, the monolayer cultured (MC) or sphere cultured (SC) SKOV3ip1 cells were subjected to treatment using 5 μM BGJ398, followed by examining the degree of phosphorylation due to the above treatment.
Further, the sphere cultured SKOV3ip1 cells were treated with 5 μM BGJ398 (BGJ), 3 μM TAE648 (TAE) and 5 μM imatinib (IMT), respectively. After 72 hours, a cell lysate was obtained and subjected to immunostaining, followed by analyzing active cellular expression of AKT and STAT3 with the antibody for the same. Further, a phosphorylation level of FGFR1 was used as a positive control group relative to BGJ treatment groups while actin was used as a loading control group. The immunostaining assay procedure was implemented in the same manner as in Example 1.
Since the cell survival of the sphere cultured SKOV3ip1 cells is inhibited by BGJ398 treatment, whether such cell survival inhibition is intermediated through JAK/STAT3 signaling pathway was further examined. […]

[2] = system: SKOV3-TR ovarian cancer cells; assay: crystal violet cell viability in paclitaxel-resistant cells
Description: SKOV3-TR cell line was offered from Sood AK in MD-Anderson Cancer Center (USA) and then used in the present experiments.
Paclitaxel resistance of each of SKOV3 and SKOV3-TR was determined by measuring the cell viability through crystal violet colorimetric assay. This experiment was implemented three times and a difference in results thereof was estimated by student's t-test.
(§1) According to the same procedures as described in the previous examples, each cell line was divided and cultured by 2D monolayer culture and 3D sphere culture, respectively. Then, a change due to administration of BGJ398 alone or in combination with paclitaxel was analyzed through morphological analysis and crystal violet staining assay.

[3] = system: SKOV3-TR ovarian cancer cells; assay: microscopic analysis of cell shape change due to cytotoxicity
Description: as §1
FIG. 20 illustrates a change in cell shape due to cytotoxicity under microscopic analysis, when paclitaxel alone, BGJ398 alone or in combination with paclitaxel was administered to SKOV3-TR ovarian cancer cells.

[4] = system: SKOV3ip1-TR ovarian cancer cells; assay: microscopic analysis of cell shape change; settings: BGJ398 in combination with paclitaxel (FIG. 21)
Description: FIG. 21 illustrates a change in cell shape, when paclitaxel alone, BGJ398 alone or in combination with […] was administered to the SKOV3ip1-TR ovarian cancer cells.

[5] = system: AKT phosphorylation and PARP cleavage in SKOV3-TR ovarian cancer cells; assay: PathScan Intracellular Signaling Array Kit; settings: BGJ398 in combination with paclitaxel (FIG. 26)
SKOV3-TR = assay: crystal violet staining assay, cisplatin and BGJ398, 2D culture; settings: BGJ398 in combination with cisplatin (FIGS. 30 and 31)
Description: (§2) According to the same procedures as described in the previous examples, each cell line was subjected to 2D culture and a change thereof upon administration of cisplatin alone, BGJ398 alone or in combination with cisplatin was analyzed through crystal violet staining assay.

SKOV3ip1 = assay: as above; settings: SKOV3ip1, BGJ398 in combination with cisplatin (FIGS. 30 and 31)
Description: as §2

## CCN1CCN(c2ccc(Nc3cc(N(C)C(=O)Nc4c(Cl)c(OC)cc(OC)c4Cl)ncn3)cc2)CC1 [BGJ398, 3-(2,6-dichloro-3,5-dimethoxyphenyl)-1-[6-[4-(4-ethylpiperazin-1yl)anilino]pyrimidin-4-yl]-1-methylurea]
[1]; sphere cultured SKOV3ip1, 5 μM BGJ398 (FIG. 6), AG490, 72 hours (FIG. 7B)
  AKT and STAT3 phosphorylation: suppressed again
[1]; sphere cultured, 5 μM BGJ398, 3 μM TAE648, 5 μM imatinib, 72 hours (FIG. 6)
  phosphorylated AKT at Ser473: inhibits phosphorylated AKT at Ser473 residue
[2]; BGJ398 at increasing concentration in combination with paclitaxel (FIG. 18)
  anticancer activity: higher anticancer activity with the increased concentration of BGJ398
[2]; BGJ398 in combination with paclitaxel at increasing concentration (FIG. 19)
  anticancer activity: higher anticancer activity with the increased concentration of paclitaxel
[2]; BGJ398 in combination with paclitaxel vs paclitaxel alone (FIG. 16)
  anticancer activity: significantly improved
[2]; BGJ398 in combination with paclitaxel, 2D monolayer culture and 3D sphere culture (FIG. 17)
  anticancer activity: more improved
[3]; 2.5 μM BGJ398 in combination with 50 nM paclitaxel (FIG. 20)
  cytotoxicity and morphological change: a detachment phenomenon due to cytotoxicity and formation of cells in irregular shapes
[3]; single agent: 2.5 μM BGJ398 or 50 nM paclitaxel (FIG. 20)
  cytotoxicity and morphological change: negligible cytotoxicity and no morphological change
[4]
  paclitaxel resistance / anticancer activity (cell shape): can block paclitaxel resistance, thereby increasing anticancer activity
[5]
  cleaved PARP: increasing the cleaved PARP
  phosphorylation of AKT at serine 473: phosphoylation of AKT at serine 473 is reduced
SKOV3-TR
  anticancer activity: anticancer activity is improved
SKOV3ip1
  anticancer activity: anticancer activity is improved
